Consider 14 compounds from patent US8399451B2, “Heterocyclic compounds” (Bristol-Myers Squibb Company, priority 2009, dated 2013).

Structures can show the parent of a compound that is named as a salt. A value given as a limit tells only on which side of the number the result lay.

In assay [1] the target is S1P1 (Homo sapiens, UniProt P21453). Description: Receptor [35S] GTPγS Binding Assay, membranes from S1P1/CHO cells. It counts as biochemical. Also on record: expressed in transfected cells; host or cells: S1P1/CHO cells. The conditions noted are these: for EC50: membranes from S1P1/CHO cells, read-out: S1P1 GTPγS EC50; for S1P3/S1P1 GTPγS (ratio of S1P3 GTPγS EC50 to S1P1 GTPγS EC50): selectivity ratio calculated from Table B, * may be greater than reported value due to S1P3 assay limits. As to the method:
(§1) Receptor [35S] GTPγS Binding Assays
(§2) Membranes prepared from S1P1/CHO cells or EDG3-Ga15-bla HEK293T cells were added to the compound plate (40 μl/well, final protein 3 μg/well) with MULTIDROP®. [^35S]GTP (1250 Ci/mmol, Perkin Elmer) was diluted in assay buffer: 20 mM HEPES, pH7.5, 10 mM MgCl2, 150 mM NaCl, 1 mM EGTA, 1 mM DTT, 10 μM GDP, 0.1% fatty acid free BSA, and 10 μg/ml Saponin to 0.4 nM. 40 μl of the [^35S] GTP solution was added to the compound plate with a final concentration of 0.2 nM. […] At the end of incubation, all the mixtures in the compound plate were transferred to a 384 well FB filter plates via GPCR robot system. […] 30 μl of MicroScint 20 scintillation fluid was added to each well for counting at Packard TOPCOUNT®.

The target in assay [2] is T1, S1P3 (Homo sapiens, UniProt Q99500).
T1 construct: expressed in transfected cells; host or cells: EDG3-Ga15-bla HEK293T cells
Description: Receptor [35S] GTPγS Binding Assay, membranes from EDG3-Ga15-bla HEK293T cells. The assay is classed as biochemical. The conditions noted are these: * detection limit 31,000 nM or 62,000 nM. As to the method:
as §1, §2

T1 sequence (Q99500 whole entry): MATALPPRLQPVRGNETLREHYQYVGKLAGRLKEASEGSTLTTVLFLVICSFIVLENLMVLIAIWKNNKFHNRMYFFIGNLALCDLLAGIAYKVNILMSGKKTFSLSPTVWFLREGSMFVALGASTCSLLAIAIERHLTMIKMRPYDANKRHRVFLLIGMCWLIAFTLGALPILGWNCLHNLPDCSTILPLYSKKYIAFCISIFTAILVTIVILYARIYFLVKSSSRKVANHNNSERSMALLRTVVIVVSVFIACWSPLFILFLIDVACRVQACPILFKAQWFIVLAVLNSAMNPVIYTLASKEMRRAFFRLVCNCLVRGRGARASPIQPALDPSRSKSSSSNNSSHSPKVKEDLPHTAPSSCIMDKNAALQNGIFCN
Sequence of S1P1 (P21453 whole entry): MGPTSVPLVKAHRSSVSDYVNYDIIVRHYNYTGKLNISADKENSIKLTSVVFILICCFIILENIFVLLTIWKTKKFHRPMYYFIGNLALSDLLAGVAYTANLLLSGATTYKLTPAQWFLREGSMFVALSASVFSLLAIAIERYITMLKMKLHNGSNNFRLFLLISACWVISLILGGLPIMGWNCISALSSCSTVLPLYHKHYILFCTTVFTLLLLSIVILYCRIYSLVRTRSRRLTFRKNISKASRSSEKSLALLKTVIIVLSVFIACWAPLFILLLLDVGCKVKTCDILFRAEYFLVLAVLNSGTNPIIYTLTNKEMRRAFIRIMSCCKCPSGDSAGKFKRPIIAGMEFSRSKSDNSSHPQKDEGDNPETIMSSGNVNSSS

Take `O=C(O)[C@H]1CCCN(C[C@@H](O)c2ccc(-c3noc(-c4cnn(-c5ccccn5)c4C(F)(F)F)n3)cc2)C1` [Example 104, (S)-1-((S)-2-hydroxy-2-(4-(5-(1-(pyridin-2-yl)-5-(trifluoromethyl)-1H-pyrazol-4-yl)-1,2,4-oxadiazol-3-yl)phenyl)ethyl)pipcridine-3-carboxylic acid]: the EC50 is 0.0045 µM in assay [1] and over 31 µM in assay [2]. Also, the “S1P3/S1P1 GTPγS (ratio of S1P3 GTPγS EC50 to S1P1 GTPγS EC50)” value in assay [1] is ≥ 6900*.

In the case of `O=C(O)[C@H]1CCCN(C[C@@H](O)c2ccc(-c3noc(-c4cnn(-c5ncc(Cl)cc5Cl)c4C(F)(F)F)n3)cc2)C1` [Example 100, (S)-1-((S)-2-(4-(5-(1-(3,5-dichloropyridin-2-yl)-5-(trifluoromethyl)-1H-pyrazol-4-yl)-1,2,4-oxadiazol-3-yl)phenyl)-2-hydroxyethyl) piperidine-3-carboxylic acid, HCl], the EC50 in assay [1] is 0.0068 µM; in assay [2], over 31 µM. Further, the “S1P3/S1P1 GTPγS (ratio of S1P3 GTPγS EC50 to S1P1 GTPγS EC50)” value in assay [1] is recorded as ≥ 4580*.

As for `Cc1ccc(-n2ncc(-c3nc(-c4ccc([C@H](O)CN5CCC[C@H](CC(=O)O)C5)cc4)no3)c2C(F)(F)F)nc1` [Example 94, 2-((R)-1-((S)-2-hydroxy-2-(4-(5-(1-(5-methylpyridin-2-yl)-5-(trifluoromethyl)-1H-pyrazol-4-yl)-1,2,4-oxadiazol-3-yl)phenyl)ethyl)piperidin-3-yl)acetic acid], in assay [1], the EC50 is 0.0086 µM and the “S1P3/S1P1 GTPγS (ratio of S1P3 GTPγS EC50 to S1P1 GTPγS EC50)” value is given as 730. Moreover, the EC50 in assay [2] worked out at 6.3 µM.

Consider `O=C(O)C[C@H]1CCCN(C[C@@H](O)c2ccc(-c3noc(-c4cnn(C5CCCCC5)c4C(F)(F)F)n3)cc2)C1` [Example 59, 2-((R)-1-((S)-2-(4-(5-(1-cyclohexyl-5-(trifluoromethyl)-1H-pyrazol-4-yl)-1,2,4-oxadiazol-3-yl)phenyl)-2-hydroxyethyl)piperidin-3-yl)acetic acid, HCl], for which, in assay [1], the EC50 was determined as 0.0018 µM and the “S1P3/S1P1 GTPγS (ratio of S1P3 GTPγS EC50 to S1P1 GTPγS EC50)” value is given as 1160. This compound also showed an EC50 in assay [2] of 2.08 µM.

With `O=C(O)[C@H]1CCCN(C[C@@H](O)c2ccc(-c3noc(-c4cnn(-c5ccc(C(F)(F)F)cn5)c4C(F)(F)F)n3)cc2)C1` [Example 98, (S)-1-((S)-2-hydroxy-2-(4-(5-(5-(trifluoromethyl)-1-(5-(trifluoromethyl)pyridin-2-yl)-1H-pyrazol-4-yl)-1,2,4-oxadiazol-3-yl)phenyl)ethyl)piperidine-3-carboxylic acid, HCl], in assay [1], the EC50 worked out at 0.003 µM and the “S1P3/S1P1 GTPγS (ratio of S1P3 GTPγS EC50 to S1P1 GTPγS EC50)” value is 1100. The compound also displayed an EC50 in assay [2] of 3.3 µM.

Consider `O=C(O)[C@H]1CCCN(CC(O)c2ccc(-c3noc(-c4cc(-c5ccc(Cl)cc5)on4)n3)cc2)C1` (stereo partly drawn) [Example 53, (3S)-1-(2-(4-(5-(5-(4-chlorophenyl)isoxazol-3-yl)-1,2,4-oxadiazol-3-yl)phenyl)-2-hydroxyethyl)piperidine-3-carboxylic acid], for which, in assay [1], the EC50 was 1.9 µM and the “S1P3/S1P1 GTPγS (ratio of S1P3 GTPγS EC50 to S1P1 GTPγS EC50)” value is recorded as ≥ 16*. The EC50 in assay [2] is over 31 µM.

With `O=C(O)C[C@H]1CCCN(C[C@@H](O)c2ccc(-c3noc(-c4cnn(-c5ccc(Cl)cn5)c4C(F)(F)F)n3)cc2)C1` [Example 70, 2-((R)-1-((S)-2-(4-(5-(1-(5-chloropyridin-2-yl)-5-(trifluoromethyl)-1H-pyrazol-4-yl)-1,2,4-oxadiazol-3-yl)phenyl)-2-hydroxyethyl)piperidin-3-yl)acetic acid, HCl], the values for the EC50 in assay [1] and in assay [2] were 0.0012 µM and 10.4 µM, respectively. The “S1P3/S1P1 GTPγS (ratio of S1P3 GTPγS EC50 to S1P1 GTPγS EC50)” value in assay [1] is listed as 8800.

As for `O=C(O)[C@H]1CCCN(CC(O)c2ccc(-c3noc(-c4ccc(-c5ccccn5)s4)n3)cc2)C1` (stereo partly drawn) [Example 43, (3S)-1-(2-hydroxy-2-(4-(5-(5-(pyridin-2-yl)thiophen-2-yl)-1,2,4-oxadiazol-3-yl)phenyl)ethyl)piperidine-3-carboxylic acid], the EC50 in assay [1] was 0.36 µM; in assay [2], over 62 µM. Besides, in assay [1], the “S1P3/S1P1 GTPγS (ratio of S1P3 GTPγS EC50 to S1P1 GTPγS EC50)” value is on record as ≥ 170*.

Take `O=C(O)[C@H]1CCCCN1CC(O)c1ccc(-c2noc(-c3onc(-c4ccccc4)c3C(F)(F)F)n2)cc1` (stereo partly drawn) [Example 41, (2R)-1-(2-Hydroxy-2-(4-(5-(3-phenyl-4-(trifluoromethyl)isoxazol-5-yl)-1,2,4-oxadiazol-3-yl)phenyl)ethyl)piperidine-2-carboxylic acid]: in assay [1], the EC50 came to 0.0054 µM and the “S1P3/S1P1 GTPγS (ratio of S1P3 GTPγS EC50 to S1P1 GTPγS EC50)” value is 1400. The same compound registered an EC50 in assay [2] of 7.5 µM.

In the case of `O=C(O)C[C@H]1CCCN(C[C@@H](O)c2ccc(-c3noc(-c4cnn(-c5ccccc5Cl)c4C(F)(F)F)n3)cc2)C1` [Example 72, 2-((3R)-1-((2S)-2-(4-(5-(1-(2-chlorophenyl)-5-(trifluoromethyl)-1H-pyrazol-4-yl)-1,2,4-oxadiazol-3-yl)phenyl)-2-hydroxyethyl)piperidin-3-yl)acetic acid, HCl], the results for the EC50 in assay [1] and in assay [2] were 0.0036 µM and 24.8 µM, respectively. Further, the “S1P3/S1P1 GTPγS (ratio of S1P3 GTPγS EC50 to S1P1 GTPγS EC50)” value in assay [1] is recorded as 6900.

Take `Cc1cccc(-c2noc(-c3nc(-c4ccc(C(O)CN5CCC[C@H](C(=O)O)C5)cc4)no3)c2C(F)(F)F)n1` (stereo partly drawn) [Example 37, (3S)-1-(2-Hydroxy-2-(4-(5-(3-(6-methylpyridin-2-yl)-4-(trifluoromethyl)isoxazol-5-yl)-1,2,4-oxadiazol-3-yl)phenyl)ethyl)piperidine-3-carboxylic acid]: in assay [1], the EC50 stood at 0.069 µM and the “S1P3/S1P1 GTPγS (ratio of S1P3 GTPγS EC50 to S1P1 GTPγS EC50)” value was ≥ 910*. In assay [2], this compound returned an EC50 of over 62 µM.

In the case of `Cc1nc(-c2ccccc2)sc1-c1nc(-c2ccc(C(O)CN3CCC[C@H](C(=O)O)C3)cc2)no1` (stereo partly drawn) [Example 46, (3S)-1-(2-hydroxy-2-(4-(5-(4-methyl-2-phenylthiazol-5-yl)-1,2,4-oxadiazol-3-yl)phenyl)ethyl)piperidine-3-carboxylic acid], in assay [1], the EC50 came out at 0.63 µM and the “S1P3/S1P1 GTPγS (ratio of S1P3 GTPγS EC50 to S1P1 GTPγS EC50)” value is 13. For the same compound, in assay [2], the EC50 came out at 8.1 µM.

As to `Cl.O=C(O)C[C@H]1CCCN(C[C@@H](O)c2ccc(-c3noc(-c4cnn(-c5ccc(F)cn5)c4C(F)(F)F)n3)cc2)C1` [Example 82, 2-((R)-1-((S)-2-(4-(5-(1-(5-fluoropyridin-2-yl)-5-(trifluoromethyl)-1H-pyrazol-4-yl)-1,2,4-oxadiazol-3-yl)phenyl)-2-hydroxyethyl)piperidin-3-yl)acetic acid, HCl], in assay [1], the EC50 was found to be 0.003 µM and the “S1P3/S1P1 GTPγS (ratio of S1P3 GTPγS EC50 to S1P1 GTPγS EC50)” value is given as 2050. Further, in assay [2], the EC50 came out at 6.09 µM.

As for `O=C(O)C[C@H]1CCCN(C[C@@H](O)c2ccc(-c3noc(-c4cnn(-c5ccc(F)cc5F)c4C(F)(F)F)n3)cc2)C1` [Example 73, 2-((3R)-1-((2S)-2-(4-(5-(1-(2,4-difluorophenyl)-5-(trifluoromethyl)-1H-pyrazol-4-yl)-1,2,4-oxadiazol-3-yl)phenyl)-2-hydroxyethyl)piperidin-3-yl)acetic acid, HCl], the EC50 in assay [1] is 0.0021 µM; in assay [2], 2.2 µM. The “S1P3/S1P1 GTPγS (ratio of S1P3 GTPγS EC50 to S1P1 GTPγS EC50)” value in assay [1] is 1030.
